Entries after “also recorded” stand apart in the source; their conditions may differ.

Data on 1 molecule can be found in patent US20180318355A1, “METHODS AND COMPOSITIONS FOR IMPROVED TISSUE REGENERATION BY SUPPRESION OF INTERFERIN-GAMMA AND TUMOR NECROSIS FACTOR-ALPHA” (Alfred E. Mann Institute for Biomedical Eng. at the …, priority 2011, published 2018).

In experiment [1] the test system is BMMSC-mediated bone formation. As to the kind of experiment: BMMSC-mediated bone formation, subcutaneous BMMSC/HA/TCP implantation. In kind it is in vivo. As to conditions: immunocompromised mice. On the procedure:
BMMSC-mediated bone formation. Approximately 4.0×10^6 BMMSCs were mixed with hydroxyapatite/tricalcium phosphate (HA/TCP) ceramic particles (40 mg, Zimmer Inc., Warsaw, Ind.) as a carrier and subcutaneously implanted into the dorsal surface of 8-10 weeks old immunocompromised mice or C57BL/6J mice. At eight weeks post-implantation, the implants were harvested, fixed in 4% paraformaldehyde and then decalcified with 5% EDTA (pH 7.4), followed by paraffin embedding. The 6 μm paraffin sections were stained with hematoxylin and eosin (H&E) and analyzed by an NIH Image J. Five fields were selected and newly formed mineralized tissue area in each field was calculated and shown as a percentage to total tissue area.
Cytokines in BMMSC-mediated bone formation. Approximately 4.0×10^6 of littermate-derived or autologous BMMSCs were mixed with HA/TCP ceramic powders (40 mg, Zimmer Inc.), and hydrogel (Glycosan Biosysterms, Salt Lake City, Utah) with 200 ng IFN-γ, TNF-α, IL-4, IL-6 or IL-17A were covered on the surface of the implants as a slow released system. At eight weeks post-implantation, the implants were harvested and newly formed mineralized tissue areas were analyzed. […]
BMMSC-mediated bone formation. Approximately 4.0×10^6 of littermate-derived or autologous BMMSCs were mixed with hydroxyapatite/tricalcium phosphate (HA/TCP) ceramic particles (40 mg, Zimmer Inc., Warsaw, Ind.) as a carrier and subcutaneously implanted into the dorsal surface of 8-10 weeks old immunocompromised mice or C57BL6 mice. When aspirin was used, BMMSCs were treated with 50 μg/ml aspirin for 2 days and mixed with HA/TCP particles to be subcutaneously implanted into immunocompromised mice. When IFN-γ and TNF-α were used in the subcutaneous implants, 200 ng IFN-γ, TNF-α or/and 100 μg aspirin mixed with 250 μl hydrogel as a slow released system and subcutaneously co-implanted to the dorsal surface of 8-10 weeks old immunocompromised mice.
At eight weeks post-implantation, the implants were harvested, fixed in 4% paraformaldehyde and then decalcified with 5% EDTA (pH 7.4), followed by paraffin embedding. The 6 μm paraffin sections were stained with hematoxylin and eosin (H&E) and analyzed by an NIH Image J. Five fields were selected and newly formed mineralized tissue area in each field was calculated and shown as a percentage to total tissue area.

A further experiment deals with IFN-γ. The experiment is described as follows: ELISA of IFN-γ level in BMMSC implants. As to conditions: aspirin treatment vs untreated control, 2 to 14 days post implantation. In kind it is in vivo, mice. From the text:
(§1) Kits. Pan T cell isolation kit II and CD4^+CD25^+ regulatory T Cell isolation kit were purchased from Miltenyi Biotec (Bergisch Gladbach, Germany). Mouse IFN-γ, TNF-α, IL-6, IL-17A, IL-4 and IL-10 ELISA Ready-SET-GO kits were purchased from eBioscience (San Diego, Calif.). siRNA kits for Fas, Smad 6, TNFR2, IKK, FLIP and XIAP were purchased from Santa Cruz Biosciences (Santa Cruz, Calif.).

The subject of the next experiment is TNF-α. The experiment is described as follows: ELISA of TNF-α level in BMMSC implants. In kind it is in vivo, mice. As to conditions: aspirin treatment vs untreated control, 2 to 14 days post implantation.
From the text: as §1

For a further experiment, the system named is IL-10. As to the kind of experiment: ELISA of IL-10 level in BMMSC implants. In kind it is in vivo, mice. As to conditions: aspirin treatment vs untreated control, 2 to 14 days post implantation.
From the text: as §1

A further experiment deals with IFN-γ positive cells. As to the kind of experiment: Immunohistochemical staining of IFN-γ positive cells in BMMSC implants. In kind it is in vivo. As to conditions: aspirin treated vs untreated control, C57BL6 mice. On the procedure:
(§2) Immunofluorescent and immunochemical microscopy. The transplants were harvested, fixed in 4% paraformaldehyde and then decalcified with 5% ethylenediaminetetraacetic acid (EDTA, pH 7.4), followed by paraffin or optimal cutting temperature compound (OCT, Sakura Fineteck Inc., Torrance, Calif.) embedding. The paraffin or frozen sections were blocked with normal serum matched to secondary antibodies, incubated with the specific or isotype-matched mouse antibodies (1:200) overnight at 4° C. For immunofluorescent staining, the samples were treated with Rhodamin/FITC-conjugated secondary antibodies (1:200, Jackson ImmunoResearch, West Grove, Pa.; Southern Biotechnology, Birmingham, Ala.), and were mounted by means of a vectashield mounting medium containing 4′,6-diamidino-2-phenylindole (DAPI) (Vector Laboratories, Burlingame, Calif.). For immunochemical staining, the samples were stained by using Zymed SuperPicture™ Kit (Invitrogen Corporation) according to the manufacturer's instruction.
(§3) Immunochemical microscopy. The transplants were harvested, fixed in 4% paraformaldehyde and then decalcified with 5% ethylenediaminetetraacetic acid (EDTA, pH 7.4), followed by paraffin or optimal cutting temperature compound (OCT, Sakura Fineteck Inc., Torrance, Calif.) embedding. […]

A further experiment concerns TNF-α positive cells. As to the kind of experiment: Immunohistochemical staining of TNF-α positive cells in BMMSC implants. In kind it is in vivo. As to conditions: aspirin treated vs untreated control, C57BL6 mice. As to the method:
as §2, §3

Another experiment concerns GFP^+ BMMSCs. The experiment is described as follows: Cell survival assay, subcutaneous GFP+ BMMSC implantation. In kind it is in vivo, mice. To be noted: 50 μg/ml aspirin pre-treated 2 days, 100 μg aspirin co-implanted, 4 to 30 days post implantation. As to the method:
Cell survival assay. 4×10^6 BMMSCs isolated from C57BL/6-Tg (CAG-EGFP)1Osb/J mice were combined with different concentrations of IFN-γ (0, 20, 50, 100, 200 ng/ml) and TNF-α (0, 20, 50, 100, 200 ng/ml) and subcutaneously transplanted into immunocompromised mice, hydrogel was used as a slowly released carrier. Thirty days after translation, the implants were harvested and digested in a solution of 3 mg/mL collagenase type I (Worthington Biochem) and 4 mg/mL dispase (Roche) for 1 h at 37° C. Single-cell suspensions were obtained by passing the cells through a 70 μm strainer (BD Bioscience). 1.0-1.5×10^6 BMMSCs were seeded into 100 mm culture dishes (Corning) and incubated for 48 hours under 37° C. at 5% CO2 condition. To eliminate the non-adherent cells, the cultures were washed with PBS twice. The attached cells were cultured for 10 days with alpha minimum essential medium (α-MEM, Invitrogen) supplemented with 20% FBS, 2 mM L-glutamine (Invitrogen), 55 μM 2-mercaptoethanol (Invitrogen), 100 U/ml penicillin, and 100 μg/ml streptomycin (Invitrogen). The numbers of GFP positive cells were counted under fluorescent microscopy.

The test system of the next experiment is calvarial bone defects. As to the kind of experiment: Calvarial bone defect repair by BMMSC/gelfoam implantation. In kind it is in vivo, C57BL/6J mice. On the procedure: Calvarial bone defect model in C57BL/6J mice. The skin of C57BL/6J mice was cut and periosteum was elevated. The surface of mouse cavarial bone was exposed, and oversize bone defects of 7 mm×8 mm were established. The bone defect was larger than usually critical size with diameter of 4 mm.
Implantation of BMMSCs to calvarial bone defects in C57BL/6J mice. 4×10^6 BMMSCs were seeded to a size of 7 mm×8 mm gelfoam (Pharmaca, Boulder, Colo.) and cultured for 3 days in vitro. The gelfoam with BMMSCs was placed to the calvarial bone defects and covered completely by skins. For aspirin treated group, the BMMSCs seeded on gelfoam were pretreated with 50 μg/ml aspirin for 3 days, then placed to the calvarial bone defect. Another gelfoam with 100 μg aspirin as a releasing system was covered on the surface of the gelfoam with BMMSCs (FIG. 14).

Experiment [2] has as its system osteoclastogenesis, osteogenesis. To be noted: literature (13-15); cited from earlier work.

On to `CC(=O)Oc1ccccc1C(=O)O` [aspirin], for which the “BMMSC-mediated bone formation suppressed by IFN-γ or TNF-α” value in [1] (200 ng IFN-γ or TNF-α co-implanted, 50 μg/ml aspirin pre-treatment and 100 μg aspirin co-implanted) is recorded as “significant rescuing of BMMSC-mediated bone formation; also recorded: restored bone formation”. For the same molecule, the “amount of new bone formation” value in [1] (BMMSCs treated with 50 μg/ml aspirin for 2 days, HA/TCP, vs untreated control) is reported as “increased”. The “level of IFN-γ in BMMSC implants” value in the experiment on IFN-γ is “reduces; also recorded: suppressed”. Besides, the “level of TNF-α in BMMSC implants” value in the experiment with TNF-α is given as “reduces; also recorded: suppressed”. Besides, the “level of IL-10 in BMMSC implants” value in the experiment on IL-10 was “not and without affecting”. Moreover, the “IFN-γ positive cells in BMMSC implants” value in the experiment with IFN-γ positive cells is “significantly decreased; also recorded: suppressive effect”. In addition, in the experiment with TNF-α positive cells, the “TNF-α positive cells in BMMSC implants” value was “significantly decreased; also recorded: suppressive effect”. For the same molecule, the “numbers of surviving GFP positive BMMSCs in implants” value in the experiment on GFP^+ BMMSCs is reported as “significantly increased numbers of survival cells; also recorded: significant increase in survival of BMMSCs”. Also, the “repair of 7×8 mm calvarial bone defects” value with calvarial bone defects (BMMSCs cultured with 50 μg/ml aspirin, gelfoam containing 100 μg aspirin, 12 weeks, microQCT, vs BMMSC/gelfoam) is “completely repaired; also recorded: significantly improves BMMSC-based calvarial defect repairing; also recorded: marked improvement in repairing calvarial defects”. The “structure of regenerated tissues versus normal calvarial tissues” value in the experiment on calvarial bone defects (BMMSCs with gelfoam containing aspirin (100 μg)) is “analogous to normal calvarial tissues”. Also, in experiment [2], the osteoclastogenesis result is given as “inhibits osteoclastogenesis” and the osteogenesis result is given as “improves osteogenesis”.
